# Experimental data reported in patent US10550105B2 (Ribon Therapeutics Inc., priority 2018, dated 2020).
# Molecular target: PARP7 (Homo sapiens (Human), UniProt Q7Z3E1)
# Experiment: Enzymatic assay for inhibition of PARP7: TR-FRET displacement of biotinylated Probe A from the TIPARP active site
# Assay type: binding
# Conditions: Table A-1
# In short: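 Read-out: 665/615 nm emission ratio (ex 320 nm, 90 μs delay) indexing bound TIPARP–Probe A. Final incubation 30 min, 25° C; compounds in dose response. Curve fit of % inhibition vs concentration; Hill slope floating or fixed at 1 (3-parameter).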
# Sequence of PARP7 (Q7Z3E1 whole entry): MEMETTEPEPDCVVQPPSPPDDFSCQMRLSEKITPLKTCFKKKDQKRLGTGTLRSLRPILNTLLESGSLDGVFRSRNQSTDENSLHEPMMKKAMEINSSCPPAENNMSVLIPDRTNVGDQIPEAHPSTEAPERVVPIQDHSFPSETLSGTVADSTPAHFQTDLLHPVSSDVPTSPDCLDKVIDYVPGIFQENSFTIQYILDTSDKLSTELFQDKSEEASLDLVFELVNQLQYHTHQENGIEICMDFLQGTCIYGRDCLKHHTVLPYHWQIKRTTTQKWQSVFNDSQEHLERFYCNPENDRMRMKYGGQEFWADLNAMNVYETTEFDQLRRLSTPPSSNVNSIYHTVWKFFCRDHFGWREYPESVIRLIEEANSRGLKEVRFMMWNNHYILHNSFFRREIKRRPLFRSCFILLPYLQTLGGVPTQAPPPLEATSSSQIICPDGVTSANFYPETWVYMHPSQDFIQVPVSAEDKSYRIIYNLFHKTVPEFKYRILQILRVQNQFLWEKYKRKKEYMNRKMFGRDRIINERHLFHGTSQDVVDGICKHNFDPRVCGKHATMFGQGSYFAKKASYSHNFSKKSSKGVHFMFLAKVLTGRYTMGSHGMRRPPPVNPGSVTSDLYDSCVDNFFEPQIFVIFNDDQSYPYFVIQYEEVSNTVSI
row,Compound,IC50
1,"Cc1c(N2Cc3ccc(OC4CCNCC4)cc3C2)cn[nH]c1=O [Example 187, 4-Methyl-5-(5-(piperidin-4-yloxy)isoindolin-2-yl)pyridazin-3(2H)-one]",≥ 1000 nM
2,"O=C(C[C@H]1CC[C@@H](COc2cn[nH]c(=O)c2C(F)(F)F)O1)N1CCN(c2ncc(C(F)(F)F)cn2)CC1 [Example 574 Isomer C, 5-(((2S,5R)-5-(2-Oxo-2-(4-(5-(trifluoromethyl)pyrimidin-2-yl)piperazin-1-yl)ethyl)-tetrahydrofuran-2-yl)methoxy)-4-(trifluoromethyl)pyridazin-3(2H)-one]",< 100 nM
3,"N#Cc1cnc(N2CCN(C(=O)c3cncc(OC[C@@H]4CCCN4c4cn[nH]c(=O)c4C(F)(F)F)c3)CC2)cn1 [Example 444, (S)-5-(4-(5-((1-(6-Oxo-5-(trifluoromethyl)-1,6-dihydropyridazin-4-yl)pyrrolidin-2-yl)methoxy)nicotinoyl)piperazin-1-yl)pyrazine-2-carbonitrile]",< 100 nM
4,"N#Cc1ccc(N2CCN(C(=O)c3cccc(OCc4cccc5c4CN(c4cn[nH]c(=O)c4C(F)(F)F)C5)c3)CC2)nc1 [Example 488, 6-(4-(3-((2-(6-Oxo-5-(trifluoromethyl)-1,6-dihydropyridazin-4-yl)isoindolin-4-yl)methoxy)benzoyl)piperazin-1-yl)nicotinonitrile]",< 100 nM
5,"C[C@@H](COCCC(=O)N1CCN(c2ncc(C(F)(F)F)cn2)C[C@@H]1C)Nc1cn[nH]c(=O)c1C(F)(F)F (single isomer, unassigned) [Example 619 Isomer A]",< 100 nM
6,"CC(O)c1cccc2c1CN(c1cn[nH]c(=O)c1C(F)(F)F)C2 (stereo not shown) [Example 278, 5-(4-(1-Hydroxyethyl)isoindolin-2-yl)-4-(trifluoromethyl)pyridazin-3(2H)-one]",100 to 1000 nM
7,"O=C(C[C@H]1CC[C@H]([C@@H]2CCCN2c2cn[nH]c(=O)c2C(F)(F)F)O1)N1CCN(c2ccc(Cl)cn2)CC1 [Example 148C, 5-[(2S)-2-[(2R,5R)-5-[2-[4-(5-chloropyridin-2-yl)piperazin-1-yl]-2-oxoethyl]oxolan-2-yl]pyrrolidin-1-yl]-4-(trifluoromethyl)-2,3-dihydropyridazin-3-one]",< 100 nM
8,"NCCOc1cccc2c1CN(c1cn[nH]c(=O)c1Cl)C2 [Example 163, 5-(4-(2-Aminoethoxy)isoindolin-2-yl)-4-chloropyridazin-3(2H)-one]",≥ 1000 nM
9,"O=C(c1cncc(OC[C@@H]2c3ccccc3CN2c2cn[nH]c(=O)c2C(F)(F)F)c1)N1CCN(c2ccc(C(F)(F)F)cn2)CC1 [Example 384, (S)-4-(Trifluoromethyl)-5-(1-(((5-(4-(5-(trifluoromethyl)pyridin-2-yl)piperazine-1-carbonyl)pyridin-3-yl)oxy)methyl)isoindolin-2-yl)pyridazin-3(2H)-one]",< 100 nM
10,"O=c1[nH]ncc(N2Cc3ccc(OCCO)cc3C2)c1Cl [Example 157, 4-Chloro-5-(5-(2-hydroxyethoxy)isoindolin-2-yl)pyridazin-3(2H)-one]",100 to 1000 nM
11,"N#Cc1ccc(N2CCN(C(=O)[C@H]3CNC[C@H](OC[C@@H]4CCCN4c4cn[nH]c(=O)c4C(F)(F)F)C3)CC2)nc1 (single isomer, unassigned) [Example 56 Isomer B]",100 to 1000 nM
12,"CC(=O)N1CCCC1COc1cc2c(cc1F)CN(c1cn[nH]c(=O)c1C(F)(F)F)C2 (stereo not shown) [Example 50, 5-[5-[(1-acetylpyrrolidin-2-yl)methoxy]-6-fluoro-2,3-dihydro-1H-isoindol-2-yl]-4-(trifluoromethyl)-2,3-dihydropyridazin-3-one]",< 100 nM
13,"O=c1[nH]ncc(N2Cc3c(F)ccc(OCCN4CCOCC4)c3C2)c1C(F)(F)F [Example 286, 5-(4-Fluoro-7-(2-morpholinoethoxy)isoindolin-2-yl)-4-(trifluoromethyl)pyridazin-3(2H)-one]",< 100 nM
14,"O=c1[nH]ncc(N2Cc3cccc(OCCN4CCNCC4)c3C2)c1Cl [Example 220, 4-Chloro-5-(4-(2-(piperazin-1-yl)ethoxy)isoindolin-2-yl)pyridazin-3(2H)-one]",100 to 1000 nM

# More lines, now with the values ahead:
row,IC50,Compound
1,< 100 nM,"N#Cc1cnc(N2CCN(C(=O)CCOCCOc3cn[nH]c(=O)c3C(F)(F)F)CC2)nc1 [Example 590, 2-(4-(3-(2-(6-Oxo-5-(trifluoromethyl)-1,6-dihydropyridazin-4-yloxy)ethoxy)propanoyl)piperazin-1-yl)pyrimidine-5-carbonitrile]"
2,< 100 nM,"N#Cc1ccc(N2CCN(C(=O)CCOCCOc3cn[nH]c(=O)c3C(F)(F)F)CC2)nc1 [Example 501, 6-[4-[3-(2-[[6-Oxo-5-(trifluoromethyl)-1,6-dihydropyridazin-4-yl]oxy]ethoxy)propanoyl]piperazin-1-yl]pyridine-3-carbonitrile]"
3,< 100 nM,"N#Cc1ccc(N2CCN(C(=O)CCCOCCOc3cn[nH]c(=O)c3C(F)(F)F)CC2)nc1 [Example 525, 6-[4-[4-(2-[[6-Oxo-5-(trifluoromethyl)-1,6-dihydropyridazin-4-yl]oxy]ethoxy)butanoyl]piperazin-1-yl]pyridine-3-carbonitrile]"
4,< 100 nM,"Nc1cccc2c1CN(c1cn[nH]c(=O)c1C(F)(F)F)C2 [Example 205, 5-(4-Aminoisoindolin-2-yl)-4-(trifluoromethyl)pyridazin-3(2H)-one]"
5,< 100 nM,"CN1CCC(NCc2cc3c(cc2F)CN(c2cn[nH]c(=O)c2C(F)(F)F)C3)CC1 [Example 25, 5-(5-fluoro-6-[[(1-methylpiperidin-4-yl)amino]methyl]-2,3-dihydro-1H-isoindol-2-yl)-4-(trifluoromethyl)-2,3-dihydropyridazin-3-one]"
6,< 100 nM,"O=c1[nH]ncc(N2Cc3cccc(OC4CCN(CC(c5ccccc5)c5ccccc5)CC4)c3C2)c1C(F)(F)F [Example 347, 5-(4-((1-(2,2-Diphenylethyl)piperidin-4-yl)oxy)isoindolin-2-yl)-4-(trifluoromethyl)pyridazin-3(2H)-one]"
7,100 to 1000 nM,"CN1CCN(C(=O)CCOC[C@@H]2c3ccccc3CN2c2cn[nH]c(=O)c2C(F)(F)F)CC1 [Example 421, (S)-5-(1-((3-(4-Methylpiperazin-1-yl)-3-oxopropoxy)methyl)isoindolin-2-yl)-4-(trifluoromethyl)pyridazin-3(2H)-one]"
8,< 100 nM,"COC[C@@H](COCCC(=O)N1CCN(c2ccc(Cl)cn2)CC1)Nc1cn[nH]c(=O)c1C(F)(F)F [Example 593, 5-[[(2S)-1-[3-[4-(5-Chloropyridin-2-yl)piperazin-1-yl]-3-oxopropoxy]-3-methoxypropan-2-yl]amino]-4-(trifluoromethyl)-2,3-dihydropyridazin-3-one]"
9,< 100 nM,"CN(CCC(=O)N1CCN(c2ccc(C#N)cn2)CC1)C[C@@H]1c2ccccc2CN1c1cn[nH]c(=O)c1Cl [Example 429, (S)-6-(4-(3-(((2-(5-Chloro-6-oxo-1,6-dihydropyridazin-4-yl)isoindolin-1-yl)methyl)(methyl)amino)propanoyl)piperazin-1-yl)nicotinonitrile]"
10,< 100 nM,"COc1cccc2c1CN(c1cn[nH]c(=O)c1C(F)(F)F)C2 [Example 164, 5-(4-Methoxyisoindolin-2-yl)-4-(trifluoromethyl)pyridazin-3(2H)-one]"
11,≥ 1000 nM,"CC(C)c1c(N2Cc3ccc(O[C@H]4CCCNC4)cc3C2)cn[nH]c1=O [Example 293, (S)-4-Isopropyl-5-(5-(piperidin-3-yloxy)isoindolin-2-yl)pyridazin-3(2H)-one]"
